Species: Rattus norvegicus
Assay: DrugMatrix - Regimen: Daily Repeat
Assay type: toxicity, organism-based, Sprague-Dawley
Design: regimen Daily Repeat, gender Male, age 6-8 weeks
Conditions: in vivo, po, 10 mg/kg, route oral GAVAGE, dose level Low, […]; for ABSOLUTE BASOPHIL / ABSOLUTE EOSINOPHIL / ABSOLUTE LYMPHOCYTE / ABSOLUTE MONOCYTE / ABSOLUTE SEGMENTED NEUTROPHIL / BASOPHIL / EOSINOPHIL / ERYTHROCYTE COUNT / HEMATOCRIT / HEMOGLOBIN / LEUKOCYTE COUNT / LYMPHOCYTE / MEAN CORPUSCULAR HEMOGLOBIN / MEAN CORPUSCULAR HEMOGLOBIN CONCENTRATION / MEAN CORPUSCULAR VOLUME / MONOCYTE / NEUTROPHIL / NUCLEATED RED BLOOD CELLS / PLATELET COUNT: tissue Blood; for ALANINE AMINOTRANSFERASE / ALBUMIN / ALKALINE PHOSPHATASE / ASPARTATE AMINOTRANSFERASE / BLOOD UREA NITROGEN / CARBON DIOXIDE / CHLORIDE / CHOLESTEROL / CREATINE PHOSPHOKINASE / CREATININE / GLUCOSE / LACTATE DEHYDROGENASE / LIPASE / PHOSPHORUS / POTASSIUM / SODIUM / TOTAL BILIRUBIN / TOTAL PROTEIN / URIC ACID: tissue Plasma

SMILES: OC(Cn1cncn1)(Cn1cncn1)c1ccc(F)cc1F [FLUCONAZOLE]
- ABSOLUTE BASOPHIL (72 h, time 3 day): 0 CELLS/uL
- ABSOLUTE EOSINOPHIL (72 h, time 3 day): 105 CELLS/uL
- ABSOLUTE LYMPHOCYTE (72 h, time 3 day): 3531.33 CELLS/uL
- ABSOLUTE MONOCYTE (72 h, time 3 day): 187.33 CELLS/uL
- ABSOLUTE SEGMENTED NEUTROPHIL (72 h, time 3 day): 2209.67 CELLS/uL
- BASOPHIL (72 h, time 3 day): 0%
- EOSINOPHIL (72 h, time 3 day): 1.67%
- ERYTHROCYTE COUNT (72 h, time 3 day): 5.95 x10E6/uL
- HEMATOCRIT (72 h, time 3 day): 39.17%
- HEMOGLOBIN (72 h, time 3 day): 15.1 G/DL
- LEUKOCYTE COUNT (72 h, time 3 day): 6.03 x10E3/uL
- LYMPHOCYTE (72 h, time 3 day): 58%
- MEAN CORPUSCULAR HEMOGLOBIN (72 h, time 3 day): 25.67 pg
- MEAN CORPUSCULAR HEMOGLOBIN CONCENTRATION (72 h, time 3 day): 38.63 G/DL
- MEAN CORPUSCULAR VOLUME (72 h, time 3 day): 66.27 fL
- MONOCYTE (72 h, time 3 day): 3%
- NEUTROPHIL (72 h, time 3 day): 37.33%
- NUCLEATED RED BLOOD CELLS (72 h, time 3 day): 0 /100WBC
- PLATELET COUNT (72 h, time 3 day): 1032.33 x10E3/uL
- ALANINE AMINOTRANSFERASE (72 h, time 3 day): 59.33 u/L
- ALBUMIN (72 h, time 3 day): 4.63 G/DL
- ALKALINE PHOSPHATASE (72 h, time 3 day): 452.67 u/L
- ASPARTATE AMINOTRANSFERASE (72 h, time 3 day): 96 u/L
- BLOOD UREA NITROGEN (72 h, time 3 day): 19.33 mg/dL
- CARBON DIOXIDE (72 h, time 3 day): 20.67 mmol/L
- CHLORIDE (72 h, time 3 day): 101.33 MEQ/L
- CHOLESTEROL (72 h, time 3 day): 45.67 mg/dL
- CREATINE PHOSPHOKINASE (72 h, time 3 day): 639.33 u/L
- CREATININE (72 h, time 3 day): 0.14 mg/dL
- GLUCOSE (72 h, time 3 day): 174 mg/dL
- LACTATE DEHYDROGENASE (72 h, time 3 day): 123 u/L
- LIPASE (72 h, time 3 day): 24.67 u/L
- PHOSPHORUS (72 h, time 3 day): 11.63 mg/dL
- POTASSIUM (72 h, time 3 day): 6.15 MEQ/L
- SODIUM (72 h, time 3 day): 142.57 MEQ/L
- TOTAL BILIRUBIN (72 h, time 3 day): 0.23 mg/dL
- TOTAL PROTEIN (72 h, time 3 day): 6.43 G/DL
- URIC ACID (72 h, time 3 day): 1.47 mg/dL
- ABSOLUTE BASOPHIL (120 h, time 5 day): 0 CELLS/uL
- ABSOLUTE EOSINOPHIL (120 h, time 5 day): 0 CELLS/uL
- ABSOLUTE LYMPHOCYTE (120 h, time 5 day): 10059.67 CELLS/uL
- ABSOLUTE MONOCYTE (120 h, time 5 day): 397 CELLS/uL
- ABSOLUTE SEGMENTED NEUTROPHIL (120 h, time 5 day): 1576.67 CELLS/uL
- BASOPHIL (120 h, time 5 day): 0%
- EOSINOPHIL (120 h, time 5 day): 0%
- ERYTHROCYTE COUNT (120 h, time 5 day): 6.01 x10E6/uL
- HEMATOCRIT (120 h, time 5 day): 38.4%
- HEMOGLOBIN (120 h, time 5 day): 14.77 G/DL
- LEUKOCYTE COUNT (120 h, time 5 day): 12.03 x10E3/uL
- LYMPHOCYTE (120 h, time 5 day): 83.33%
- MEAN CORPUSCULAR HEMOGLOBIN (120 h, time 5 day): 24.57 pg
- MEAN CORPUSCULAR HEMOGLOBIN CONCENTRATION (120 h, time 5 day): 38.5 G/DL
- MEAN CORPUSCULAR VOLUME (120 h, time 5 day): 63.9 fL
- MONOCYTE (120 h, time 5 day): 3.33%
- NEUTROPHIL (120 h, time 5 day): 13.33%
- NUCLEATED RED BLOOD CELLS (120 h, time 5 day): 0.33 /100WBC
- PLATELET COUNT (120 h, time 5 day): 1300 x10E3/uL
- ALANINE AMINOTRANSFERASE (120 h, time 5 day): 78.67 u/L
- ALBUMIN (120 h, time 5 day): 4.23 G/DL
- ALKALINE PHOSPHATASE (120 h, time 5 day): 452.67 u/L
- ASPARTATE AMINOTRANSFERASE (120 h, time 5 day): 86.67 u/L
- BLOOD UREA NITROGEN (120 h, time 5 day): 10.67 mg/dL
- CARBON DIOXIDE (120 h, time 5 day): 27 mmol/L
- CHLORIDE (120 h, time 5 day): 100.67 MEQ/L
- CHOLESTEROL (120 h, time 5 day): 56 mg/dL
- CREATINE PHOSPHOKINASE (120 h, time 5 day): 230.33 u/L
- CREATININE (120 h, time 5 day): 0.11 mg/dL
- GLUCOSE (120 h, time 5 day): 169.67 mg/dL
- LACTATE DEHYDROGENASE (120 h, time 5 day): 181.33 u/L
- LIPASE (120 h, time 5 day): 6.67 u/L
- PHOSPHORUS (120 h, time 5 day): 11.83 mg/dL
- POTASSIUM (120 h, time 5 day): 5.55 MEQ/L
- SODIUM (120 h, time 5 day): 141.67 MEQ/L
- TOTAL BILIRUBIN (120 h, time 5 day): 0.2 mg/dL
- TOTAL PROTEIN (120 h, time 5 day): 6.23 G/DL
- URIC ACID (120 h, time 5 day): 1.3 mg/dL

Source: ChEMBL document CHEMBL3885881, “DrugMatrix”
